Assay results taken from ChEMBL document CHEMBL5537157, “Selective Antitumor Effect and Lower Toxicity of Mitochondrion-Targeting Derivatization of Triptolide” (J Med Chem, 2024).
pIC50: −log10 of the molar value. Active and inactive are the calls of the source. The calls are words filed in the database; no cut-off is given here.

What was measured:
NCI-H1975 [1] = assay: Cytotoxicity against human NCI-H1975 cells assessed as inhibition of cell viability incubated for 48 hrs by MTT assay; assay type: functional, cell-based; conditions: NCI-H1975, 48 h
[2] = Cytotoxicity against human BEAS-2B cells assessed as inhibition of cell viability incubated for 48 hrs by MTT assay; assay type: toxicity, cell-based
MCF7 [3] = assay: Cytotoxicity against human MCF7 cells assessed as inhibition of cell viability incubated for 48 hrs by MTT assay; assay type: functional, cell-based; conditions: MCF7, 48 h
A549 [4] = assay: Cytotoxicity against human A549 cells assessed as inhibition of cell viability incubated for 48 hrs by MTT assay; assay type: functional, cell-based; conditions: A549, 48 h
NCI-H460 [5] = assay: Cytotoxicity against human NCI-H460 cells assessed as inhibition of cell viability incubated for 48 hrs by MTT assay; assay type: functional, cell-based; conditions: NCI-H460, 48 h
NCI-H1975 [6] = assay: Inhibition of cell viability in human NCI-H1975 cells assessed as effect on cell index at 80 nM by real-time cell analysis; assay type: functional, cell-based
[7] = Drug accumulation in mitochondria of human NCI-H1975 cells at 120 nM incubated for 5 hrs by Red CMXRos probe based analysis; assay type: ADME; conditions: nci-h1975, 5 h, 0.12 µM
NCI-H1975 [8] = assay: Cytotoxicity against human NCI-H1975 cells assessed as cell growth inhibition incubated for 48 hrs by MTT assay; assay type: functional, cell-based
NCI-H460 [9] = assay: Cytotoxicity against human NCI-H460 cells assessed as cell growth inhibition incubated for 48 hrs by MTT assay; assay type: functional, cell-based
BEAS-2B = assay: Cytotoxicity against human BEAS-2B cells assessed as cell growth inhibition incubated for 48 hrs by MTT assay; assay type: toxicity, cell-based
MCF7 [10] = assay: Cytotoxicity against human MCF7 cells assessed as cell growth inhibition incubated for 48 hrs by MTT assay; assay type: functional, cell-based
A549 [11] = assay: Cytotoxicity against human A549 cells assessed as cell growth inhibition incubated for 48 hrs by MTT assay; assay type: functional, cell-based
NCI-H1975 [12] = assay: Cytotoxicity against human NCI-H1975 cells assessed as cell growth inhibition incubated for 48 hrs by MTT assay relative to control; assay type: functional

With `CC(C)[C@]12O[C@H]1[C@@H]1O[C@]13[C@]1(O[C@H]1C[C@H]1C4=C(CC[C@@]13C)C(=O)OC4)[C@]2(O)CO` the pIC50 (NCI-H1975 [1]) was less than 4.00, the IC50 at 48 h [2] was greater than 100 µM and the pIC50 (MCF7 [3]) was less than 4.00. It also gave a pIC50 (A549 [4]) of less than 4.00 and a pIC50 (NCI-H460 [5]) of less than 4.30.

In the case of `CC(C)[C@]12O[C@H]1[C@@H]1O[C@]13[C@]1(O[C@H]1C[C@H]1C4=C(CC[C@@]13C)C(=O)OC4)[C@]2(O)COC(=O)CCCC[P+](c1ccccc1)(c1ccccc1)c1ccccc1`, the pIC50 (NCI-H1975 [1]) was less than 4.00, the IC50 at 48 h [2] was greater than 100 µM and the pIC50 (MCF7 [3]) was less than 4.00. It also gave a pIC50 (A549 [4]) of less than 4.00 and a pIC50 (NCI-H460 [5]) of less than 4.00.

Molecule `CC(C)[C@]12O[C@H]1[C@@H]1O[C@]13[C@]1(O[C@H]1C[C@H]1C4=C(CC[C@@]13C)C(=O)OC4)[C@]2(O)C=O` has a pIC50 (NCI-H1975 [1]) of less than 4.30, an IC50 at 48 h [2] greater than 100 µM and a pIC50 (MCF7 [3]) of less than 4.00. For the same molecule, the pIC50 (A549 [4]) was less than 4.00 and the pIC50 (NCI-H460 [5]) was less than 4.30.

With `CC(C)[C@]12O[C@H]1[C@@H]1O[C@]13[C@]1(O[C@H]1C[C@H]1C4=C(CC[C@@]13C)C(=O)OC4)[C@@H]2OC(=O)CCCCCCC[n+]1ccc(/C=C/c2c[nH]c3ccccc23)cc1.[Br-]` the pIC50 (NCI-H1975 [1]) was 6.40, the IC50 at 48 h [2] was 48.8 µM and the pIC50 (MCF7 [3]) was 5.15. For the same molecule, the pIC50 (A549 [4]) was less than 4.30, the pIC50 (NCI-H460 [5]) was 4.76 and the inhibition (NCI-H1975 [6]) was “Active”. The Drug uptake [7] was “Active”.

Work on `CC(C)[C@]12O[C@H]1[C@@H]1O[C@]13[C@]1(O[C@H]1C[C@H]1C4=C(CC[C@@]13C)C(=O)OC4)[C@]2(O)COC(=O)CCCCC[P+](c1ccccc1)(c1ccccc1)c1ccccc1` yielded a pIC50 (NCI-H1975 [1]) of less than 4.00, an IC50 at 48 h [2] greater than 50 µM and a pIC50 (MCF7 [3]) of less than 4.30. The pIC50 (A549 [4]) was less than 4.00 and the pIC50 (NCI-H460 [5]) was less than 4.30.

`CC(C)[C@]12O[C@H]1[C@@H]1O[C@]13[C@]1(O[C@H]1C[C@H]1C4=C(CC[C@@]13C)C(=O)OC4)[C@@H]2OC(=O)CCCCCCCCCC[n+]1ccc(/C=C/c2c[nH]c3ccccc23)cc1` gave a pIC50 (NCI-H1975 [1]) of 6.47, an IC50 at 48 h [2] of 12.7 µM and a pIC50 (MCF7 [3]) of 5.28. For the same molecule, the pIC50 (A549 [4]) was less than 4.30.

With `CC(C)[C@]12O[C@H]1[C@@H]1O[C@]13[C@]1(O[C@H]1C[C@H]1C4=C(CC[C@@]13C)C(=O)OC4)[C@]2(O)COC(=O)CCCCCC[P+](c1ccccc1)(c1ccccc1)c1ccccc1` the pIC50 (NCI-H1975 [1]) was less than 4.52, the IC50 at 48 h [2] was greater than 30 µM and the pIC50 (MCF7 [3]) was less than 4.30. It also gave a pIC50 (A549 [4]) of 4.42 and a pIC50 (NCI-H460 [5]) of less than 4.30.

Molecule `C[n+]1ccc(/C=C/c2c[nH]c3ccccc23)cc1` has a pIC50 (NCI-H1975 [1]) of less than 4.30, an IC50 at 48 h [2] greater than 100 µM and a pIC50 (MCF7 [3]) of less than 4.00. For the same molecule, the pIC50 (A549 [4]) was less than 4.00 and the pIC50 (NCI-H460 [5]) was less than 4.30.

With `CC(C)[C@]12O[C@H]1[C@@H]1O[C@]13[C@]1(O[C@H]1C[C@H]1C4=C(CC[C@@]13C)C(=O)OC4)[C@@H]2OC(=O)CCCCCC[n+]1ccc(/C=C/c2c[nH]c3ccccc23)cc1` the pIC50 (NCI-H1975 [1]) was 6.57, the IC50 at 48 h [2] was 27.9 µM and the pIC50 (A549 [4]) was 4.32. The pIC50 (NCI-H460 [5]) was 4.92.

`CC(C)[C@]12O[C@H]1[C@@H]1O[C@]13[C@]1(O[C@H]1C[C@H]1C4=C(CC[C@@]13C)C(=O)OC4)[C@]2(O)COC(=O)CCCCCCCCC[P+](c1ccccc1)(c1ccccc1)c1ccccc1` showed a pIC50 (NCI-H1975 [1]) of 4.73, an IC50 at 48 h [2] of 23.6 µM and a pIC50 (MCF7 [3]) of 4.52. It also gave a pIC50 (A549 [4]) of 4.64 and a pIC50 (NCI-H460 [5]) of 4.57.

For `CC(C)[C@]12O[C@H]1[C@@H]1O[C@]13[C@]1(O[C@H]1C[C@H]1C4=C(CC[C@@]13C)C(=O)OC4)[C@@H]2OC(=O)CCCCC[P+](c1ccccc1)(c1ccccc1)c1ccccc1.[Br-]`, the inhibition (NCI-H1975 [8]) was “Dose-Dependent Effect”, the inhibition (NCI-H460 [9]) was “Dose-Dependent Effect” and the “inhibition (INH)” value (BEAS-2B) was “Dose-Dependent Effect”. The inhibition (MCF7 [10]) was “Dose-Dependent Effect”, the inhibition (A549 [11]) was “Dose-Dependent Effect” and the pIC50 (NCI-H1975 [1]) was 6.85. It also gave an IC50 at 48 h [2] greater than 10 µM, a pIC50 (MCF7 [3]) of less than 5.00 and a pIC50 (A549 [4]) of less than 5.00. For the same molecule, the pIC50 (NCI-H460 [5]) was less than 5.00 and the Imax (NCI-H1975 [12]) was roughly 65%.

With `CC(C)[C@]12O[C@H]1[C@@H]1O[C@]13[C@]1(O[C@H]1C[C@H]1C4=C(CC[C@@]13C)C(=O)OC4)[C@]2(O)COC(=O)CCCCCCC[P+](c1ccccc1)(c1ccccc1)c1ccccc1` the pIC50 (NCI-H1975 [1]) was 4.60, the IC50 at 48 h [2] was 21.7 µM and the pIC50 (MCF7 [3]) was less than 4.00. For the same molecule, the pIC50 (A549 [4]) was 4.56 and the pIC50 (NCI-H460 [5]) was 4.53.

`CC(C)[C@]12O[C@H]1[C@@H]1O[C@]13[C@]1(O[C@H]1C[C@H]1C4=C(CC[C@@]13C)C(=O)OC4)[C@@H]2OC(=O)CCCC[n+]1ccc(/C=C/c2c[nH]c3ccccc23)cc1` showed a pIC50 (NCI-H1975 [1]) of 5.24, an IC50 at 48 h [2] of 35.7 µM and a pIC50 (MCF7 [3]) of 4.33. It also gave a pIC50 (A549 [4]) of less than 4.30 and a pIC50 (NCI-H460 [5]) of less than 4.30.

`CC(C)[C@]12O[C@H]1[C@@H]1O[C@]13[C@]1(O[C@H]1C[C@H]1C4=C(CC[C@@]13C)C(=O)OC4)[C@]2(O)COC(=O)CCCCCCCC[P+](c1ccccc1)(c1ccccc1)c1ccccc1` showed a pIC50 (NCI-H1975 [1]) of 4.61, an IC50 at 48 h [2] of 23.4 µM and a pIC50 (MCF7 [3]) of 4.68. It also gave a pIC50 (A549 [4]) of 4.66 and a pIC50 (NCI-H460 [5]) of 4.56.

With `CC(C)[C@]12O[C@H]1[C@@H]1O[C@]13[C@]1(O[C@H]1C[C@H]1C4=C(CC[C@@]13C)C(=O)OC4)[C@@H]2OC(=O)CCCCCCCCC[n+]1ccc(/C=C/c2c[nH]c3ccccc23)cc1` the pIC50 (NCI-H1975 [1]) was 6.36, the IC50 at 48 h [2] was 11.9 µM and the pIC50 (MCF7 [3]) was 5.20. The pIC50 (A549 [4]) was 4.60 and the pIC50 (NCI-H460 [5]) was 5.29.

With `COc1cccc2c1C(=O)c1c(O)c3c(c(O)c1C2=O)C[C@@](O)(C(=O)CO)C[C@@H]3O[C@H]1C[C@H](N)[C@H](O)[C@H](C)O1` [DOXORUBICIN] the pIC50 (NCI-H1975 [1]) was 5.58, the IC50 at 48 h [2] was 42 µM and the pIC50 (A549 [4]) was 5.60. For the same molecule, the pIC50 (NCI-H460 [5]) was 6.24.

Molecule `C1=CCC(P(c2ccccc2)c2ccccc2)C=C1` (stereo not given) has a pIC50 (NCI-H1975 [1]) of less than 4.00, an IC50 at 48 h [2] greater than 100 µM and a pIC50 (MCF7 [3]) of less than 4.00. It also gave a pIC50 (A549 [4]) of less than 4.00 and a pIC50 (NCI-H460 [5]) of less than 4.00.

Molecule `CC(C)[C@]12O[C@H]1[C@@H]1O[C@]13[C@]1(O[C@H]1C[C@H]1C4=C(CC[C@@]13C)C(=O)OC4)[C@@H]2OC(=O)CCCCC[n+]1ccc(/C=C/c2c[nH]c3ccccc23)cc1` has a pIC50 (NCI-H1975 [1]) of 5.54, an IC50 at 48 h [2] of 94.3 µM and a pIC50 (MCF7 [3]) of 4.78. It also gave a pIC50 (A549 [4]) of less than 4.30 and a pIC50 (NCI-H460 [5]) of 5.51.
